# Laboratory results: US7514448B2, “Azaindoles useful as inhibitors of rock and other protein kinases” (Vertex Pharmaceuticals Incorporated, priority 2004, dated 2009)
# Tests used:
# ROCK I (AA 6-553) = ROCK I (AA 6-553) (Homo sapiens, UniProt Q13464); assay: ROCK inhibition assay, coupled enzyme system ("Enzyme"); assay type: biochemical; details: enzyme-linked assay; average Ki if more than one determined
# Protocol: Reactions were carried out in a solution containing 100 mM HEPES (pH 7.5), 10 mM MgCl2, 25 mM NaCl, 2 mM DTT and 1.5% DMSO.
# If more than one value of Ki has been determined, the average Ki is indicated. If no value is indicated, then the Ki was not determined.
# PKA = PKA (Homo sapiens, UniProt P17612); assay: PKA inhibition assay, coupled enzyme; assay type: biochemical; details: average Ki if more than one determined
# Protocol: Compounds were screened for their ability to inhibit PKA using a standard coupled enzyme assay (Fox et al., Protein Sci, 1998, 7, 2249). Assays were carried out in a mixture of 100 mM HEPES (pH 7.5), 10 mM MgCl2, 25 mM NaCl, 1 mM DTT and 3% DMSO. Final substrate concentrations in the assay were 50 μM ATP (Sigma Chemicals) and 80 μM peptide (Kemptide, American Peptide, Sunnyvale, Calif.). Assays were carried out at 30° C. and 18 nM PKA. Final concentrations of the components of the coupled enzyme system were 2.5 mM phosphoenolpyruvate, 300 μM NADH, 30 μg/ml pyruvate kinase and 10 μg/ml lactate dehydrogenase.
# An assay stock buffer solution was prepared containing all of the reagents listed above, with the exception of ATP, and the test compound of the present invention. […] The plate was preincubated for 10 minutes at 30° C. and the reaction initiated by addition of 5 μl of ATP (final concentration 50 μM). Initial reaction rates were determined with a Molecular Devices SpectraMax Plus plate reader over a 15 minute time course. IC50 and Ki data were calculated from non-linear regression analysis using the Prism software package (GraphPad Prism version 3.0a for Macintosh, GraphPad Software, San Diego Calif., USA).
# Chain of ROCK I (AA 6-553) (Q13464 6-553, species assumed): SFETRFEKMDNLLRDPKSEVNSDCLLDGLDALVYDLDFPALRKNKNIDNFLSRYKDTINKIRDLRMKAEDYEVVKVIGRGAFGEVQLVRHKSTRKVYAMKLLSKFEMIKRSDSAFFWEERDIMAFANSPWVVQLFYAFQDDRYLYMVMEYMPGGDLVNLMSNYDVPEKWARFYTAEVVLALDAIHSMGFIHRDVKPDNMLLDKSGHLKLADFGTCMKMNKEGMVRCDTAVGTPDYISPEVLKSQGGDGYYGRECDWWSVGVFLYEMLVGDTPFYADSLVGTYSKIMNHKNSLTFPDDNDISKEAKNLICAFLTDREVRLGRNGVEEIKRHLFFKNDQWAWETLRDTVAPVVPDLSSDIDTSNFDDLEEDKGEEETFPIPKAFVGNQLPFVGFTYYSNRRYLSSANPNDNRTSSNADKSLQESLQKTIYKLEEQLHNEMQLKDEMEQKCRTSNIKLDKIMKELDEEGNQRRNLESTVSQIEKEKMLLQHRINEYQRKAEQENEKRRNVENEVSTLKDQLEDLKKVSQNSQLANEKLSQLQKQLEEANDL
Compound,Ki (ROCK I (AA 6-553)) [nM],Ki (PKA) [nM]
c1cnc2[nH]cc(-c3csc(NC4CC4)n3)c2c1 [II-3],500 to 5000,500 to 5000
CCN(CC)S(=O)(=O)c1cccc(CC(=O)Nc2nc(-c3c[nH]c4nccc(Cl)c34)cs2)c1 [II-93],500 to 5000,500 to 5000
O=C(Cc1cccc(S(=O)(=O)N2CCOCC2)c1)Nc1nnc(-c2c[nH]c3ncccc23)s1 [II-58],500 to 5000,500 to 5000
CS(=O)(=O)Nc1cccc(CC(=O)Nc2nc(-c3c[nH]c4nccc(Cl)c34)cs2)c1 [II-94],< 500,< 500
O=C(Cc1ccccc1F)Nc1nc(-c2c[nH]c3ncccc23)cs1 [I-3],< 500,< 500
COc1cccc(CC(=O)N(c2nc(-c3c[nH]c4ncccc34)cs2)C2CC2)c1 [II-70],< 500,< 500
CC(C)S(=O)(=O)Nc1ccc(CC(=O)Nc2nc(-c3c[nH]c4ncccc34)cs2)c(Cl)c1 [II-48],< 500,< 500
O=C(Cc1cccc(S(=O)(=O)N2CCCCC2)c1)Nc1nc(-c2c[nH]c3ncccc23)cs1 [II-112],< 500,500 to 5000
CN(C)CCNS(=O)(=O)c1cccc(CC(=O)Nc2nc(-c3c[nH]c4ncccc34)cs2)c1 [II-97],< 500,< 500
CS(=O)(=O)Nc1ccc(CC(=O)Nc2nc(-c3c[nH]c4ncccc34)cs2)c(Cl)c1 [II-47],< 500,< 500
O=C(Cc1ccc(F)cc1)Nc1nnc(-c2c[nH]c3ncccc23)s1 [II-7],< 500,< 500
O=C(Cc1cccc(S(=O)(=O)N2CCOCC2)c1)Nc1csc(-c2c[nH]c3ncccc23)n1 [II-57],< 500,500 to 5000
CC(=O)N1[C@H](C)CN(c2nc(-c3c[nH]c4ncc(Cl)cc34)cs2)C[C@@H]1C [II-43],500 to 5000,500 to 5000
O=C(Cc1cccc(S(=O)(=O)N2CCOCC2)c1)Nc1nc(-c2c[nH]c3ncccc23)cs1 [II-26],< 500,500 to 5000
O=C(Cc1ccc2c(c1)OCO2)Nc1nc(-c2c[nH]c3nccc(F)c23)cs1 [II-18],< 500,< 500
O=C(Cc1cc2c(cc1Cl)OCO2)N(c1nc(-c2c[nH]c3ncccc23)cs1)C1CC1 [II-88],< 500,< 500

Compound,Ki (ROCK I (AA 6-553)) [nM],Ki (PKA) [nM]
COc1cccc(CNC(=O)c2ccc(-c3c[nH]c4ncccc34)s2)c1 [II-30],< 500,< 500
COc1cccc(CC(=O)Nc2nc(-c3c[nH]c4ncc(Br)cc34)cs2)c1 [II-77],< 500,500 to 5000
COc1ccc(CC(=O)Nc2nc(-c3c[nH]c4ncccc34)cs2)c(Cl)c1 [I-18],< 500,< 500
COc1cccc(CC(=O)Nc2csc(-c3c[nH]c4ncccc34)n2)c1 [II-55],< 500,< 500
O=C(Cc1ccc(F)cc1F)Nc1nc(-c2c[nH]c3ncccc23)cs1 [I-6],< 500,< 500
CCS(=O)(=O)Nc1ccc(CC(=O)Nc2nc(-c3c[nH]c4ncccc34)cs2)c(Cl)c1 [II-35],< 500,500 to 5000
O=C(Cc1ccc(F)cc1F)Nc1csc(-c2c[nH]c3ncccc23)n1 [II-56],< 500,< 500
CS(=O)(=O)Nc1cccc(CC(=O)Nc2nnc(-c3c[nH]c4ncccc34)s2)c1 [II-9],< 500,< 500
CC(C)N1CCN(S(=O)(=O)c2cccc(CC(=O)Nc3nc(-c4c[nH]c5ncccc45)cs3)c2)CC1 [II-89],< 500,500 to 5000
NC(=O)c1cccc(CC(=O)Nc2nc(-c3c[nH]c4ncccc34)cs2)c1 [II-41],< 500,< 500
O=C(Cc1ccccc1F)N(c1nc(-c2c[nH]c3ncccc23)cs1)C1CC1 [II-44],< 500,< 500
CCN(CC)S(=O)(=O)c1cccc(CC(=O)Nc2nnc(-c3c[nH]c4ncccc34)s2)c1 [II-64],500 to 5000,500 to 5000
O=C(Cc1cccc(S(=O)(=O)NCC2CCCO2)c1)Nc1nc(-c2c[nH]c3ncccc23)cs1 (centres unmarked) [II-72],< 500,< 500
COc1cccc(CC(=O)Nc2nc(-c3c[nH]c4nccc(F)c34)cs2)c1 [II-19],< 500,< 500
O=C(Cc1cccc(S(=O)(=O)N[C@H]2CCOC2)c1)Nc1nc(-c2c[nH]c3ncccc23)cs1 [II-42],< 500,< 500
O=C(Cc1cccc(OCCCC2CCNCC2)c1)N(c1nc(-c2c[nH]c3ncccc23)cs1)C1CC1 [II-76],< 500,500 to 5000

# Results, then the molecule that gave them:
Ki (ROCK I (AA 6-553)) [nM],Ki (PKA) [nM],Compound
< 500,< 500,CS(=O)(=O)Nc1cccc(CC(=O)Nc2cc(-c3c[nH]c4ncccc34)cs2)c1 [II-33]
< 500,500 to 5000,COc1cccc(CC(=O)Nc2nc(-c3c[nH]c4ncccc34)c(C)s2)c1 [II-99]
< 500,500 to 5000,CS(=O)(=O)c1ccc(CC(=O)N(c2nc(-c3c[nH]c4ncccc34)cs2)C2CC2)cc1 [II-73]
< 500,500 to 5000,O=C(Cc1cccc(OCCCN2CCNCC2)c1)Nc1nc(-c2c[nH]c3nccc(F)c23)cs1 [II-36]
< 500,500 to 5000,CC(C)(C)OC(=O)N1CCC(CCCOc2cccc(CC(=O)Nc3nc(-c4c[nH]c5ncccc45)cs3)c2)CC1 [I-9]
< 500,500 to 5000,Cc1sc(NC(=O)Cc2cccc(NS(C)(=O)=O)c2)nc1-c1c[nH]c2ncccc12 [II-100]
< 500,< 500,O=C(NCc1cccc(S(=O)(=O)N2CCOCC2)c1)c1ccc(-c2c[nH]c3ncccc23)s1 [II-65]
< 500,< 500,O=C(Cc1ccccc1)Nc1nc(-c2c[nH]c3nccc(F)c23)cs1 [II-16]
< 500,< 500,COc1cccc(CC(=O)Nc2nc(-c3c[nH]c4nccc(Cl)c34)cs2)c1 [II-92]
< 500,< 500,O=C(Cc1ccc(F)cc1F)Nc1nnc(-c2c[nH]c3ncccc23)s1 [I-22]
< 500,< 500,O=C(Cc1cccc(S(=O)(=O)N2CCOCC2)c1)N(c1nc(-c2c[nH]c3ncccc23)cs1)C1CC1 [II-87]
< 500,< 500,O=C(Cc1cccc(S(=O)(=O)N2CCNCC2)c1)Nc1nc(-c2c[nH]c3ncccc23)cs1 [II-25]
< 500,< 500,O=C(Cc1ccc(F)cc1F)N(c1nc(-c2c[nH]c3ncccc23)cs1)C1CC1 [II-45]
< 500,500 to 5000,O=C(Cc1cccc(OCCCC2CCNCC2)c1)Nc1nc(-c2c[nH]c3nccc(F)c23)cs1 [II-17]
< 500,500 to 5000,CN1CCN(CCCOc2cccc(CC(=O)N(c3nc(-c4c[nH]c5ncccc45)cs3)C3CC3)c2)CC1 [II-84]
< 500,500 to 5000,CS(=O)(=O)Nc1cccc(CC(=O)Nc2nc(-c3c[nH]c4nccc(F)c34)cs2)c1 [II-14]

Ki (ROCK I (AA 6-553)) [nM],Ki (PKA) [nM],Compound
< 500,< 500,COc1cccc(CNC(=O)c2cc(-c3c[nH]c4ncccc34)cs2)c1 [II-71]
< 500,500 to 5000,O=C(Cc1cccc(S(=O)(=O)N2CCOCC2)c1)Nc1nc(-c2c[nH]c3nccc(F)c23)cs1 [II-66]
< 500,500 to 5000,CS(=O)(=O)Nc1cccc(CC(=O)Nc2nc(-c3c[nH]c4ncc(Cl)cc34)cs2)c1 [II-104]
< 500,< 500,CS(=O)(=O)Nc1cccc(CC(=O)Nc2csc(-c3c[nH]c4ncccc34)n2)c1 [II-46]
< 500,< 500,O=C(NCc1ccccc1)c1ccc(-c2c[nH]c3ncccc23)s1 [II-29]
< 500,500 to 5000,CCN(CC)S(=O)(=O)c1cccc(CC(=O)Nc2csc(-c3c[nH]c4ncccc34)n2)c1 [II-63]
< 500,< 500,O=C(Cc1ccccc1)Nc1nc(-c2c[nH]c3ncc(Cl)cc23)cs1 [II-102]
< 500,500 to 5000,Cc1sc(NC(=O)Cc2ccccc2)nc1-c1c[nH]c2ncccc12 [II-98]
< 500,< 500,O=C(NCCc1cccc(F)c1)c1ccc(-c2c[nH]c3ncccc23)s1 [II-32]
< 500,500 to 5000,O=C(Nc1csc(-c2c[nH]c3ncccc23)n1)c1ccccc1 [II-81]
< 500,< 500,O=C(Cc1cc2c(cc1Cl)OCO2)Nc1nc(-c2c[nH]c3ncccc23)cs1 [I-13]
< 500,< 500,CS(=O)(=O)Nc1cccc(CNC(=O)c2cc(-c3c[nH]c4ncccc34)cs2)c1 [II-106]
< 500,500 to 5000,O=C(Cc1cc2c(cc1Cl)OCO2)Nc1nnc(-c2c[nH]c3ncccc23)s1 [II-10]
< 500,< 500,O=C(Cc1ccc(F)cc1)Nc1nc(-c2c[nH]c3ncccc23)cs1 [I-4]
< 500,500 to 5000,CCN(CC)S(=O)(=O)c1cccc(CC(=O)Nc2nc(-c3c[nH]c4nccc(F)c34)cs2)c1 [II-67]
< 500,500 to 5000,CN1CCN(CCOc2cccc(CC(=O)N(c3nc(-c4c[nH]c5ncccc45)cs3)C3CC3)c2)CC1 [II-86]
